The values below come from ChEMBL document CHEMBL1146802, “Glyco-optimization of aminoglycosides: new aminoglycosides as novel anti-infective agents” (2004).

Common to all, as to type: functional
Assay [1] relates to Staphylococcus aureus. In words: In vitro inhibitory activity against Staphylococcus aureus ATCC 29213.
Assay [2] concerns Pseudomonas aeruginosa. As to the kind of experiment: In vitro inhibitory activity against Pseudomonas aeruginosa ATCC 27853.
Assay [3] concerns Staphylococcus aureus. In words: In vitro inhibitory activity against Staphylococcus aureus MRSA 33591.
Assay [4] has as its system Escherichia coli. As to the kind of experiment: In vitro inhibitory activity against Escherichia coli ATCC 25922.
Assay [5] concerns Enterococcus faecalis. As to the kind of experiment: In vitro inhibitory activity against Enterococcus faecalis ATCC 29212.
Assay [6] deals with Pseudomonas aeruginosa. As to the kind of experiment: In vitro inhibitory activity against Pseudomonas aeruginosa ATCC 35151.
Assay [7] concerns Pseudomonas aeruginosa. As to the kind of experiment: In vitro inhibitory activity against Pseudomonas aeruginosa PAO-1.
Assay [8] has as its system Escherichia coli. In words: In vitro inhibitory activity against Escherichia coli ATCC 25922; Value ranges from 0.25-1 ug/mL.
For assay [9], the system named is Enterococcus faecalis. As to the kind of experiment: In vitro inhibitory activity against Enterococcus faecalis ATCC 29212; Value ranges from 8-32 ug/mL.
Where [10] appears, read: Staphylococcus aureus, ATCC 29213, read-out: MIC.
Where [11] appears, read: Pseudomonas aeruginosa, ATCC 27853, read-out: MIC.
Where [12] appears, read: Escherichia coli, ATCC 25922, read-out: MIC.
[13] abbreviates: Enterococcus faecalis, ATCC 29212, read-out: MIC.
The mark [14] stands for this setting: Pseudomonas aeruginosa, ATCC 35151, read-out: MIC.
Where [15] appears, read: Pseudomonas aeruginosa, read-out: MIC.

SMILES strings stand for the structures. In brackets after ≈: the same amount, converted by molar mass. Some results are limits rather than exact numbers.

Regarding `CC1OC(OC2C(N)CC(N)C(OC3OC(CN)C(O)CC3N)C2O)C(N)C(O)C1O` (centres undefined), the minimal inhibitory concentration (MIC) in the assay with Staphylococcus aureus [1] (setting [10]), with Pseudomonas aeruginosa [2] (setting [11]), in the assay on Staphylococcus aureus [3], in the assay on Escherichia coli [4] (setting [12]) and in the assay on Enterococcus faecalis [5] (setting [13]) was more than 64 µg/mL each time.

Regarding `NCC1OC(OC2C(N)CC(N)C(OC3OCC(O)C(O)C3O)C2O)C(N)CC1O` (centres undefined), the MIC with Staphylococcus aureus [1] (setting [10]), in the assay with Pseudomonas aeruginosa [2] (setting [11]), with Staphylococcus aureus [3], in the assay on Escherichia coli [4] (setting [12]), in the assay on Pseudomonas aeruginosa [6] (setting [14]) and in the assay with Pseudomonas aeruginosa [7] (setting [15]) was more than 64 µg/mL each time. Further, the MIC with Enterococcus faecalis [5] (setting [13]) is more than 64 µg/mL.

Turning to `CC1CC(N(C)C)C(O)C(OC2C(N)CC(N)C(OC3OC(CN)C(O)CC3N)C2O)O1` (centres undefined), the MIC in the assay with Staphylococcus aureus [1] (setting [10]) is 32 µg/mL (≈ 69 µM); with Pseudomonas aeruginosa [2] (setting [11]), more than 64 µg/mL; against Staphylococcus aureus [3] it was more than 64 µg/mL; in the assay with Escherichia coli [4] (setting [12]), 16 µg/mL (≈ 34.5 µM); in the assay with Pseudomonas aeruginosa [6] (setting [14]), 32 µg/mL (≈ 69 µM); in the assay on Pseudomonas aeruginosa [7] (setting [15]) it was 64 µg/mL (≈ 138 µM). Moreover, in the assay with Enterococcus faecalis [5] (setting [13]), the MIC was more than 64 µg/mL.

As for `NC[C@@H]1O[C@H](O[C@H]2[C@H](O)[C@H](O[C@H]3O[C@@H](CO)[C@@H](O)[C@H](O)[C@@H]3O)[C@H](N)C[C@H]2N)[C@@H](N)C[C@@H]1O`, the MIC was 32 µg/mL (≈ 68.3 µM) in the assay with Staphylococcus aureus [1] (setting [10]); 16 µg/mL (≈ 34.2 µM) in the assay with Pseudomonas aeruginosa [2] (setting [11]); more than 64 µg/mL in the assay on Staphylococcus aureus [3]; 32 µg/mL (≈ 68.3 µM) with Escherichia coli [4] (setting [12]); 16 µg/mL (≈ 34.2 µM) with Pseudomonas aeruginosa [6] (setting [14]); 8 µg/mL (≈ 17.1 µM) with Pseudomonas aeruginosa [7] (setting [15]). For the same molecule, the MIC in the assay on Enterococcus faecalis [5] (setting [13]) is more than 64 µg/mL.

As for `NCC1OC(OC2C(N)CC(N)C(OC3OC(CN)C(O)C(O)C3N)C2O)C(N)CC1O` (centres undefined), the MIC in the assay on Staphylococcus aureus [1] (setting [10]) is 8 µg/mL (≈ 17.1 µM); in the assay with Pseudomonas aeruginosa [2] (setting [11]), 16 µg/mL (≈ 34.3 µM); with Staphylococcus aureus [3], more than 64 µg/mL; in the assay on Escherichia coli [4] (setting [12]), 32 µg/mL (≈ 68.6 µM); in the assay with Pseudomonas aeruginosa [6] (setting [14]), 16 µg/mL (≈ 34.3 µM); in the assay with Pseudomonas aeruginosa [7] (setting [15]), 8 µg/mL (≈ 17.1 µM). For the same molecule, the MIC in the assay on Enterococcus faecalis [5] (setting [13]) is more than 64 µg/mL.

As for `NCC1OC(OC2C(N)CC(N)C(OC3OCC(O)C(O)C3N)C2O)C(N)CC1O` (centres undefined), the MIC with Staphylococcus aureus [1] (setting [10]) was 16 µg/mL (≈ 36.6 µM); in the assay on Pseudomonas aeruginosa [2] (setting [11]), 16 µg/mL (≈ 36.6 µM); against Staphylococcus aureus [3] it was more than 64 µg/mL; in the assay with Escherichia coli [4] (setting [12]), 8 µg/mL (≈ 18.3 µM); in the assay on Enterococcus faecalis [5] (setting [13]) it was more than 64 µg/mL.

For `CC1OC(OC2C(N)CC(N)C(OC3OC(CN)C(O)CC3N)C2O)C(O)C(O)C1O` (centres undefined), the MIC in the assay on Staphylococcus aureus [1] (setting [10]), in the assay on Pseudomonas aeruginosa [2] (setting [11]), with Staphylococcus aureus [3], with Escherichia coli [4] (setting [12]), in the assay with Pseudomonas aeruginosa [6] (setting [14]) and in the assay on Pseudomonas aeruginosa [7] (setting [15]) was more than 64 µg/mL each time. Moreover, in the assay on Enterococcus faecalis [5] (setting [13]), the MIC was more than 64 µg/mL.

For `NCC1OC(OC2C(N)CC(N)C(OC3OCC(O)C(N)C3O)C2O)C(N)CC1O` (stereo in doubt; 8u), the MIC in the assay on Staphylococcus aureus [1], with Pseudomonas aeruginosa [2] and against Escherichia coli [4] was 2 µg/mL (≈ 4.57 µM) in each case.

For `NCC1OC(OC2C(N)CC(N)C(OC3OCC(O)C(N)C3O)C2O)C(N)CC1O` (stereo in doubt; 8v), the MIC was 32 µg/mL (≈ 73.1 µM) in the assay on Staphylococcus aureus [1]; more than 64 µg/mL with Pseudomonas aeruginosa [2]; more than 64 µg/mL against Staphylococcus aureus [3]; more than 64 µg/mL in the assay with Escherichia coli [4]; more than 64 µg/mL in the assay on Enterococcus faecalis [5] (setting [13]).

`NCC1OC(OC2C(N)CC(N)C(OC3OC(CO)C(O)C(N)C3N)C2O)C(N)CC1O` (stereo in doubt; form 1): the MIC turned out to be 1 µg/mL (≈ 2.14 µM) against Staphylococcus aureus [1]; 2 µg/mL (≈ 4.29 µM) against Pseudomonas aeruginosa [2]; 1 µg/mL (≈ 2.14 µM) with Pseudomonas aeruginosa [6] (setting [14]); 1 µg/mL (≈ 2.14 µM) with Pseudomonas aeruginosa [7] (setting [15]); 32 µg/mL (≈ 68.6 µM) in the assay on Enterococcus faecalis [5].

Turning to `NCC1OC(OC2C(N)CC(N)C(OC3OC(CO)C(N)C(O)C3N)C2O)C(N)CC1O` (stereo in doubt; form 1), the MIC was 8 µg/mL (≈ 17.1 µM) against Staphylococcus aureus [1]; 32 µg/mL (≈ 68.6 µM) against Pseudomonas aeruginosa [2]; 32 µg/mL (≈ 68.6 µM) against Escherichia coli [4]; 16 µg/mL (≈ 34.3 µM) against Pseudomonas aeruginosa [6]; 16 µg/mL (≈ 34.3 µM) in the assay on Pseudomonas aeruginosa [7]; more than 64 µg/mL in the assay on Enterococcus faecalis [5].

For the molecule `NCC1OC(OC2C(N)CC(N)C(OC3OC(CO)C(N)C(N)C3O)C2O)C(N)CC1O` (stereo in doubt; form 1), the MIC in the assay on Staphylococcus aureus [1] was 32 µg/mL (≈ 68.6 µM); with Pseudomonas aeruginosa [2], more than 64 µg/mL; against Staphylococcus aureus [3] it was more than 64 µg/mL; in the assay with Pseudomonas aeruginosa [6], more than 64 µg/mL; with Pseudomonas aeruginosa [7], more than 64 µg/mL; with Enterococcus faecalis [5] (setting [13]) it was more than 64 µg/mL.

Turning to `NCC1OC(OC2C(N)CC(N)C(OC3OC(CO)C(O)C(N)C3N)C2O)C(N)CC1O` (stereo in doubt; form 2), the MIC with Staphylococcus aureus [1] was 64 µg/mL (≈ 137 µM); in the assay on Pseudomonas aeruginosa [2], more than 64 µg/mL; in the assay with Staphylococcus aureus [3], more than 64 µg/mL; in the assay with Escherichia coli [4] (setting [12]) it was more than 64 µg/mL; in the assay on Enterococcus faecalis [5] (setting [13]) it was more than 64 µg/mL.

On to `NCC1OC(OC2C(N)CC(N)C(OC3OC(CO)C(N)C(O)C3N)C2O)C(N)CC1O` (stereo in doubt; form 2), for which the MIC with Staphylococcus aureus [1] was 1 µg/mL (≈ 2.14 µM); in the assay on Pseudomonas aeruginosa [2], 2 µg/mL (≈ 4.29 µM); in the assay with Staphylococcus aureus [3], more than 64 µg/mL; in the assay on Escherichia coli [4], 2 µg/mL (≈ 4.29 µM); in the assay on Pseudomonas aeruginosa [6] it was 1 µg/mL (≈ 2.14 µM); against Pseudomonas aeruginosa [7], 1 µg/mL (≈ 2.14 µM). Further, in the assay on Enterococcus faecalis [5] (setting [13]), the MIC is 32 µg/mL (≈ 68.6 µM).

`NCC1OC(OC2C(N)CC(N)C(OC3OC(CO)C(N)C(N)C3O)C2O)C(N)CC1O` (stereo in doubt; form 2): the MIC was 1 µg/mL (≈ 2.14 µM) in the assay with Staphylococcus aureus [1]; 2 µg/mL (≈ 4.29 µM) against Pseudomonas aeruginosa [2]; 1 µg/mL (≈ 2.14 µM) in the assay with Pseudomonas aeruginosa [6]; 2 µg/mL (≈ 4.29 µM) with Pseudomonas aeruginosa [7]; 64 µg/mL (≈ 137 µM) in the assay with Enterococcus faecalis [5].

On to `NC[C@H]1O[C@H](O[C@H]2[C@H](O)[C@@H](O[C@H]3O[C@H](CO)[C@@H](O)[C@H](N)[C@H]3O)[C@H](N)C[C@@H]2N)[C@H](N)C[C@@H]1O` [TOBRAMYCIN], for which the MIC is 0.5 µg/mL (≈ 1.07 µM) with Staphylococcus aureus [1] (setting [10]); 0.5 µg/mL (≈ 1.07 µM) with Pseudomonas aeruginosa [2] (setting [11]); more than 1 µg/mL against Escherichia coli [8]; more than 32 µg/mL in the assay on Enterococcus faecalis [9]; more than 64 µg/mL in the assay with Staphylococcus aureus [3]; 0.5 µg/mL (≈ 1.07 µM) in the assay on Pseudomonas aeruginosa [6] (setting [14]). The MIC in the assay on Pseudomonas aeruginosa [7] (setting [15]) is 0.5 µg/mL (≈ 1.07 µM).
